Test results from ChEMBL document CHEMBL1136657, “Novel ether derivatives of mannopeptimycin glycopeptide antibiotic” (2003).

Key:
[1] = system: Enterococcus sp.; assay: Minimum inhibitory concentration against Enterococcus species. was determined; type: functional
[2] = system: Staphylococcus aureus; assay: Minimum inhibitory concentration against Staphylococcus aureus was determined; type: functional
[3] = system: Streptococcus; assay: Minimum inhibitory concentration against Streptococcus species. was determined; type: functional
[4] = system: Candida albicans; assay: Minimum inhibitory concentration against Candida albicans was determined; type: functional
[5] = system: Enterococcus faecalis; assay: Minimum inhibitory concentration against Enterococcus faecalis was determined; Range is 8-16 ug/mL; type: functional
[6] = Minimum inhibitory concentration against Gram(-) sp. was determined; type: functional
[7] = system: Staphylococcus aureus; assay: Minimum inhibitory concentration against Staphylococcus aureus (MRCNS) was determined; type: functional
[8] = system: Staphylococcus aureus; assay: Minimum inhibitory concentration against Staphylococcus aureus (MSCNS) was determined; Range is 1-8 ug/mL; type: functional
[9] = system: Staphylococcus aureus; assay: Minimum inhibitory concentration against Staphylococcus aureus (MRSA) was determined; Range is 4-8 ug/mL; type: functional
[10] = system: Streptococcus; assay: Minimum inhibitory concentration against Streptococcus was determined; Range is <=0.12-2 ug/mL; type: functional
[11] = system: Staphylococcus aureus; assay: Minimum inhibitory concentration against Staphylococcus aureus (MSSA) was determined; Range is 4-8 ug/mL; type: functional
[12] = system: Enterococcus faecium; assay: Minimum inhibitory concentration against Enterococcus faecium was determined; Range is 8-16 ug/mL; type: functional
[13] = system: Bacillus cereus; assay: Minimum inhibitory concentration against Bacillus cereus (GC 4561) was determined; type: functional
[14] = system: Escherichia coli; assay: Minimum inhibitory concentration against Escherichia coli (GC 2203) was determined; type: functional
[15] = system: Enterococcus faecalis; assay: Minimum inhibitory concentration against Enterococcus faecalis (GC 2242) was determined; type: functional
[16] = system: Enterococcus faecalis; assay: Minimum inhibitory concentration against Enterococcus faecalis (GC 2691) was determined; type: functional
[17] = system: Enterococcus avium; assay: Minimum inhibitory concentration against Enterococcus avium (GC 4558) was determined; type: functional
[18] = system: Enterococcus faecalis; assay: Minimum inhibitory concentration against Enterococcus faecalis (GC 4552) was determined; type: functional
[19] = system: Enterococcus faecalis; assay: Minimum inhibitory concentration against Enterococcus faecalis (GC 4553) was determined; type: functional
[20] = system: Enterococcus faecalis; assay: Minimum inhibitory concentration against Enterococcus faecalis (GC 4554) was determined; type: functional
[21] = system: Escherichia coli; assay: Minimum inhibitory concentration against Escherichia coli (GC 4560) was determined; type: functional
[22] = system: Escherichia coli; assay: Minimum inhibitory concentration against Escherichia coli (GC 4564) was determined; type: functional
[23] = system: Enterococcus faecium; assay: Minimum inhibitory concentration against Enterococcus faecium (GC 2243) was determined; type: functional
[24] = system: Enterococcus faecium; assay: Minimum inhibitory concentration against Enterococcus faecium (GC 4556) was determined; type: functional
[25] = system: Enterococcus faecium; assay: Minimum inhibitory concentration against Enterococcus faecium (GC 4557) was determined; type: functional
[26] = system: Enterococcus faecalis; assay: Minimum inhibitory concentration against Enterococcus faecalis (GC 4555) was determined; type: functional
[27] = system: Enterococcus faecalis; assay: Minimum inhibitory concentration against Enterococcus faecalis (GC 6189) was determined; type: functional
[28] = system: Mus musculus; assay: In vivo activity against Staphylococcus aureus smith was determined after iv administration in mice; type: functional; conditions: Mus musculus, iv; read-out: ED50
[29] = system: Morganella morganii; assay: Minimum inhibitory concentration against Morganella morganii (GC 4381) was determined; type: functional
[30] = system: Pseudomonas aeruginosa; assay: Minimum inhibitory concentration against Pseudomonas aeruginosa (GC 2214) control was determined; type: functional
[31] = system: Micrococcus luteus; assay: Minimum inhibitory concentration against Sarcina lutea (GC 4562) was determined; type: functional
[32] = Minimum inhibitory concentration against SCN (GC 4548) was determined; type: functional
[33] = Minimum inhibitory concentration against SCN (GC 4549) was determined; type: functional
[34] = Minimum inhibitory concentration against SCN (GC 4551) was determined; type: functional
[35] = Minimum inhibitory concentration against SCN (GC 6257) was determined; type: functional
[36] = Minimum inhibitory concentration against SCN (GC 4547) was determined; type: functional
[37] = system: Streptococcus pyogenes; assay: Minimum inhibitory concentration against Streptococcus pyogenes (GC 4563) was determined; type: functional
[38] = system: Streptococcus agalactiae; assay: Minimum inhibitory concentration against Streptococcus agalactiae (GC4564) was determined; type: functional
[39] = system: Staphylococcus aureus; assay: Minimum inhibitory concentration against Staphylococcus aureus smith; type: functional
[40] = system: Streptococcus pneumoniae; assay: Minimum inhibitory concentration against Streptococcus pneumoniae (GC 1894) was determined; type: functional
[41] = system: Streptococcus pneumoniae; assay: Minimum inhibitory concentration against Streptococcus pneumoniae (GC 4565) was determined; type: functional
[42] = system: Streptococcus pneumoniae; assay: Minimum inhibitory concentration against Streptococcus pneumoniae (GC 6242) was determined; type: functional
[43] = system: Staphylococcus aureus; assay: Minimum inhibitory concentration against Staphylococcus aureus (GC 1131) was determined; type: functional
[44] = system: Staphylococcus aureus; assay: Minimum inhibitory concentration against Staphylococcus aureus (GC 2216) was determined; type: functional
[45] = system: Staphylococcus aureus; assay: Minimum inhibitory concentration against Staphylococcus aureus (GC 3051) was determined; type: functional
[46] = system: Staphylococcus aureus; assay: Minimum inhibitory concentration against Staphylococcus aureus (GC 3066) was determined; type: functional
[47] = system: Staphylococcus aureus; assay: Minimum inhibitory concentration against Staphylococcus aureus (GC 4541 was determined; type: functional
[48] = system: Staphylococcus aureus; assay: Minimum inhibitory concentration against Staphylococcus aureus (GC 4542) was determined; type: functional
[49] = system: Staphylococcus aureus; assay: Minimum inhibitory concentration against Staphylococcus aureus (GC 4543) was determined; type: functional
[50] = system: Staphylococcus aureus; assay: Minimum inhibitory concentration against Staphylococcus aureus (GC 4544) was determined; type: functional
[51] = system: Staphylococcus aureus; assay: Minimum inhibitory concentration against Staphylococcus aureus (GC 4545) was determined; type: functional
[52] = system: Enterococcus faecalis; assay: Minimum inhibitory concentration against Enterococcus faecalis (GC 3059) was determined; type: functional
[53] = system: Candida albicans; assay: Minimum inhibitory concentration against Candida albicans GC 3066 was determined; type: functional
[54] = system: Staphylococcus haemolyticus; assay: Minimum inhibitory concentration against Staphylococcus haemolyticus (GC 4546) was determined

CC(C)CC(=O)O[C@H]1[C@H](O)[C@H](O)[C@@H](O[C@H]2[C@H](O)[C@H](O)[C@@H](Oc3ccc(C[C@H]4NC(=O)[C@H]([C@@H](C)c5ccccc5)NC(=O)CNC(=O)[C@H](CO)NC(=O)[C@@H]([C@@H](O)[C@@H]5CN=C(N)N5[C@H]5O[C@H](O)[C@@H](O)[C@H](O)[C@@H]5O)NC(=O)[C@H]([C@@H](O)[C@@H]5CN=C(N)N5)NC4=O)cc3)O[C@@H]2CO)O[C@@H]1CO
4 µg/mL: MIC [1] | MIC [2]
2 µg/mL: MIC [3]

CC(C)CC(=O)O[C@@H]1[C@@H](O[C@H]2[C@H](O)[C@H](O)[C@@H](Oc3ccc(C[C@H]4NC(=O)[C@H]([C@@H](C)c5ccccc5)NC(=O)CNC(=O)[C@H](CO)NC(=O)[C@@H]([C@@H](O)[C@@H]5CN=C(N)N5[C@H]5O[C@H](O)[C@@H](O)[C@H](O)[C@@H]5O)NC(=O)[C@H]([C@@H](O)[C@@H]5CN=C(N)N5)NC4=O)cc3)O[C@@H]2CO)O[C@H](CO)[C@@H](O)[C@@H]1O
> 128 µg/mL: MIC [1]
8 µg/mL: MIC [2] | MIC [3]

C[C@@H](c1ccccc1)[C@@H]1NC(=O)CNC(=O)[C@H](CO)NC(=O)[C@@H]([C@@H](O)[C@@H]2CN=C(N)N2[C@H]2O[C@H](O)[C@@H](O)[C@H](O)[C@@H]2O)NC(=O)[C@H]([C@@H](O)[C@@H]2CN=C(N)N2)NC(=O)[C@@H](Cc2ccc(O[C@H]3O[C@H](CO)[C@@H](O[C@H]4O[C@H](CO)[C@@H](O)[C@H](OCc5ccc(OCc6ccccc6)cc5)[C@@H]4O)[C@H](O)[C@@H]3O)cc2)NC1=O
4 µg/mL: MIC [7] | MIC [9] | MIC [11]
≤ 0.12 µg/mL: MIC [10]
> 128 µg/mL: MIC [4] | MIC [6]
8 µg/mL: MIC [5] | MIC [12]
1 µg/mL: MIC [8]

COc1ccc2cc(CO[C@H]3[C@H](O)[C@H](O)[C@@H](O[C@H]4[C@H](O)[C@H](O)[C@@H](Oc5ccc(C[C@H]6NC(=O)[C@H]([C@@H](C)c7ccccc7)NC(=O)CNC(=O)[C@H](CO)NC(=O)[C@@H]([C@@H](O)[C@@H]7CN=C(N)N7[C@H]7O[C@H](O)[C@@H](O)[C@H](O)[C@@H]7O)NC(=O)[C@H]([C@@H](O)[C@@H]7CN=C(N)N7)NC6=O)cc5)O[C@@H]4CO)O[C@@H]3CO)ccc2c1
0.12 µg/mL: MIC [32] | MIC [33]
0.25 µg/mL: MIC [21] | MIC [34] | MIC [35] | MIC [48] | MIC [54]
≤ 0.06 µg/mL: MIC [31] | MIC [37] | MIC [38] | MIC [40] | MIC [41] | MIC [42]
> 64 µg/mL: MIC [30] | MIC [53]
0.06 mg/kg: ED50 [28]
1 µg/mL: MIC [13] | MIC [25] | MIC [27] | MIC [44] | MIC [45] | MIC [46] | MIC [50]
64 µg/mL: MIC [29]
0.5 µg/mL: MIC [36] | MIC [39] | MIC [43] | MIC [47] | MIC [49] | MIC [51]
2 µg/mL: MIC [15] | MIC [16] | MIC [17] | MIC [18] | MIC [19] | MIC [20] | MIC [23] | MIC [24] | MIC [26] | MIC [52]
32 µg/mL: MIC [14] | MIC [22]
